Test results from a melting point compilation (Tetko et al.; mined from patent text by program, amines drawn as free bases though some values may be those of a salt).

SMILES | melting point
CCc1cc2c(cc1C(CC)SCC(=O)O)OCO2 (stereo not given) | 88 to 89 °C
CC(C)(C)c1cc(SCCC(=O)NNC=O)cc(C(C)(C)C)c1O | 158 to 159 °C
CCNC[C@H]1CCc2cc(F)cc(-c3c(Cl)cccc3Cl)c2O1 | > 225 °C
Cc1cc(Br)cnc1CCCCN | 35 to 37 °C
CCOC(=O)c1c(Nc2c(C)cccc2C)n[nH]c1C | 131 to 137 °C
CNCCOc1ccc(C2=C(c3ccccc3)CCCc3cc(OC4CCCCO4)ccc32)cc1 (stereo not given) | 133 to 137 °C
CCCCN(CCCC)CCCOc1ccc(S(=O)(=O)c2c(-c3ccccc3)noc2C(C)C)cc1 | 53.5 °C
CCOc1cc2c(O)cc(C)nc2nc1C | 281 to 284 °C
CN(c1cccc2cc(-c3nccs3)[nH]c12)S(=O)(=O)N1CCCC1 | 108 °C
CNS(=O)(=O)c1cc2c(c(C(=O)OC)c1)OCCO2 | 159 to 160 °C
Cc1[nH]c(=O)c(C#N)cc1-c1ccccc1OCC(C)C(=O)O (stereo not given) | 228 to 230 °C
CN(C)c1ccc(C2(c3ccc(N(C)C)cc3N(C)C)OC(=O)c3ccc(N(C)C)cc32)c(N(C)C)c1 | 188 to 192 °C
O=c1oc(-c2c(F)cccc2Cl)nn1-c1ccccc1Cl | 92 to 95 °C
CCOC(=O)NC(=O)n1sc(OCC)nc1=O | 119 °C
O=C(Cc1cc(O)no1)OC(c1ccccc1)c1ccccc1 | 105 to 106 °C
Clc1ncnc2c1c(Nc1ccccc1)nn2Cc1ccccc1 | 135 °C
CC/C=C/CONC(=O)c1nc(-c2ccc(Cl)c(OC)c2F)cc(N)c1Cl | 145 to 147 °C
FC(F)(F)CO[Si](c1ccccc1)(c1ccccc1)c1ccccc1 | 114 °C
CS(=O)(=O)N(Cc1ccccn1)CC(O)(Cn1cncn1)c1ccc(Cl)cc1Cl (stereo not given) | 154 to 156 °C
Cc1nc(CO)n(COCc2ccccc2)c1Sc1ccccc1 | 87 to 88 °C
O=C1c2ccc(OCCOCCOCCO)cc2C(=O)c2ccc(OCCOCCOCCO)cc21 | 110 °C
Oc1nc2cc(Cl)ccc2n2cnnc12 | > 300 °C
CC(C)OC(=O)c1cc(-c2nn(C)c(C(F)(F)F)c2CF)c(F)cc1Cl | 74 °C
O=C(c1cccnc1)N1CCC(c2ccccc2F)=N1 | 89 to 91 °C
CCc1ccc(Nc2nc3cc(NC(=O)c4cc([N+](=O)[O-])ccc4Cl)ccc3o2)cc1 | > 250 °C

SMILES | melting point
COc1ccc(F)cc1C(C)(C)c1cc(F)ccc1O | 90 °C
COc1ccc(-c2cc(C(=O)NCc3ccccn3)c(=O)n(CC3CCCC3)n2)cc1 | 127 to 128 °C
COC(=O)c1ccc(N=CC=Cc2ccccc2)cn1 | 128 to 131 °C
COc1ccc(-n2c(SC)nc3cc(OC)cc(OC)c3c2=O)cc1 | 212 to 215 °C
CCCCCCNC(=O)NC1CCCc2sccc21 (stereo not given) | 122 to 124 °C
COCCc1nc2c(N)nc3cc(Br)cnc3c2n1CC(C)(C)O | 210 to 211 °C
Cc1ccc(S(=O)(=O)Oc2ccc(S(=O)(=O)c3c(C(C)C)cn4ccccc34)cc2)cc1 | 180 to 183 °C
COC1=CC(Cl)(OC)NC(C(=O)CC(=O)Nc2ccccc2)=N1 (stereo not given) | 142 to 144 °C
O=C1OC2CCC1OC2 (stereo not given) | 56 to 57 °C
CC(=O)Nc1ncc(Cc2ccc(Cl)cc2)c(NC(C)=O)n1 | 147 °C
O=C1CCN(Cc2ccc([N+](=O)[O-])cc2)CC1C(c1ccc(F)cc1)c1ccc(F)cc1 (stereo not given) | 118 to 119 °C
CCC(CC)Nc1cc(C)nc2c1nnn2-c1c(C)cc(C)cc1C | 131 to 133 °C
O=C(NCc1cccnc1)c1ccc2n1Cc1ccccc1N(C(=O)c1ccc(-c3ccccc3CN3CCOCC3)cc1)C2 | 191 to 194 °C
CN1C(=O)CN=C(c2ccccc2F)c2cc(NC(=O)NCCOC(C)(C)C)ccc21 | 177 °C
O=C(C(=O)c1ccc([N+](=O)[O-])cc1)c1ccc([N+](=O)[O-])cc1 | 211 to 212 °C
CC(OCc1cc2cc(Cl)ccc2n1S(=O)(=O)c1ccc2c(c1)OCCN2C)C(=O)O (stereo not given) | 68 °C
O=c1ncc(Br)cn1CCC(O)Cl (stereo not given) | 162 to 164 °C
O=S(=O)(c1cccs1)N(CCO)c1cccc2cc(-c3nccs3)[nH]c12 | 170 to 171 °C
COc1ccc2c(c1)OC(=O)N(C1CCCCC1)C2 | 76 to 77 °C
O=C(NCc1ccc(F)cc1)c1nc2n(c(=O)c1OCc1ccccc1)CCN2Cc1ccccc1 | 125 °C
CNC(=O)COC(=O)N1CCN(CCc2cc(-c3ccc(Cl)cc3)no2)CC1 | 130 to 132 °C
Cc1cc(O)n2nc(CC(=O)O)nc2n1 | 266 to 270 °C
O=C(NC(=O)C(c1ccccc1)c1ccccc1)OCc1ccccc1 | 100 to 101 °C
O=C(O)c1cnc2n1CCc1ccccc1C2=C1CCN(CCc2ccc(OCc3ccc4ccccc4n3)cc2)CC1 | 174 °C
Cc1ccc(Cl)c(C)c1Nn1cc(C#N)c(=O)[nH]c1=O | > 320 °C

SMILES | melting point
CC(C)Oc1cccc(-n2c(NN)nc3ccccc3c2=O)c1 | 158 to 160 °C
O=c1c(O)cn(-c2ccccc2F)nc1-c1ccnn1-c1ccccc1 | 218 to 220 °C
NC(=O)OC[C@H](Cc1ccccc1)NC(=O)OCc1ccccc1 | 121 to 128 °C
CCOC(=O)c1sc2ccc(Cl)cc2c1C | 92.5 to 94 °C
O=C(c1ccccc1)N1CCc2[nH]c3cccc(CCCOc4ccccc4)c3c2CC1 | 121 to 124 °C
O=C(O)C1CCc2c(c3ccccc3n2C(=O)C2CCCCC2)C1 (stereo not given) | 157 to 159 °C
CC(=O)C1CCC2C3CCC4CC(=O)CCC4(C)C3C(OC(=O)CCl)CC12C (stereo not given) | 133 to 135 °C
O=C(N[C@@H](Cc1c[nH]cn1)C(=O)OCCc1cccs1)C(Cc1cccc2ccccc12)Cc1cccc2ccccc12 | 203 to 206 °C
Cc1ccc(OC(C)(C)C=O)c(C#N)c1 | 60 to 64 °C
CC(=O)N[C@H](COC1CCCCO1)C(=O)NCCO[N+](=O)[O-] (stereo not given in full) | 93 to 95 °C
CCCCCCCCCCCOc1cc(C(=O)O)ccc1CO | 82 to 83 °C
COc1cc(C=O)ccc1Oc1nc(Nc2cccc(C(=O)O)c2)nc(Oc2ccccc2)n1 | 218 to 220 °C
CCCCCCCCCCCCCCCCCC(=O)Nc1cccc(C(=O)N(CC(=O)O)CC(=O)O)c1 | 132 to 142 °C
O=C(O)CCCCCCC1C(=O)NC(=O)N1CCCCCc1ccccc1 (stereo not given) | 90 to 92 °C
CC(C)(C)c1ccc(Cn2ccc3cc(-c4ccc(C(C)(C)C)cc4)ccc32)cc1 | 167 to 168 °C
COc1cc2c3c(ccc(N)c3c1N)C(=O)N(O)C2=O | 317 to 318 °C
CCOC(=O)CCc1cn(Cc2ccccc2)nc1O | 75 to 76 °C
CC(C)(c1ccc(Oc2ccc(N=C=O)cc2)cc1)c1ccc(Oc2ccc(N=C=O)cc2)cc1 | 68 to 69 °C
CC(NC(=O)OCc1ccccc1)C(=O)NC1C(C(=O)O)OC(n2cnc3c(NC(=O)c4ccccc4)ncnc32)C1O (stereo not given) | 154 to 156 °C
CCn1c(=O)n(CCN2CC[C@H](NC(=O)c3cc(Cl)c(N)c4c3OCC4)[C@H](OC)C2)c2ccccc21 (relative stereo) | 174 °C
CCOC(=O)[C@H]1C2C1[C@](N[C@H](C)c1ccccc1)(C(=O)OCC)C[C@@H]2O (stereo not given in full) | 73 to 74 °C
COc1ccc(CC2CCC3NC(=O)C(CO)CC3C2)cc1 (stereo not given) | 193 to 200 °C
CCCCCCCCCCCCCCCc1cc2cc(C(=O)OC)ccc2[nH]1 | 89 to 92 °C
O=Cc1cc(OCCl)c(O)cc1[N+](=O)[O-] | 160 to 161 °C
N#CC(c1ccc(O)cc1)c1c(Cl)cc(-n2ncc(=O)[nH]c2=O)cc1Cl (stereo not given) | 210 °C

SMILES | melting point
CN1CC(O)N(c2nnc(SCc3cccs3)s2)C1=O (stereo not given) | 129 to 132 °C
COc1ccc(NC(=O)CN2CCC(Cc3ccccc3)CC2)cc1 | 81 to 83 °C
O=C(O)c1cn(C2CC2)c2cc(N3CCC(c4ccncc4)C3)c(F)cc2c1=O (stereo not given) | 260 to 261 °C
COC[C@@H]1[C@@H](c2ccc(Cl)c(Cl)c2)C[C@@H]2CC[C@H]1N2C | 73 to 76 °C
CC(C)CC(NC(=O)OC(C)(C)C)C(O)c1ccccn1 (stereo not given) | 83 to 84 °C
Cn1c(=S)n(C)c(=O)n(-c2cc(O)c(Cl)cc2F)c1=O | 242 to 246 °C
CN1CCN(C(=S)C2(c3ccccn3)CCCS2)CC1 (stereo not given) | 124 °C
CS(=O)c1cccc2c1C(=O)N1CCCC1c1c(C(=O)OC(C)(C)C)ncn1-2 (stereo not given) | 224 to 225 °C
CN(Cc1ccc(NC(=O)/C=C/c2ccc(-c3ccc(C(C)(C)C)cc3)s2)cc1)C1CCOCC1 | 216 to 220 °C
CCCn1nc(C(C)C)c(C(=O)OC(C)OC(=O)OC2CCCCC2)c1Cc1ccc(-c2ccccc2-c2nnn[nH]2)cc1 (stereo not given) | 79 to 83 °C
O=C(c1ccccc1)c1ccc(Nc2nc(Nc3ccc(C(=O)c4ccccc4)cc3)nc(-c3cccn3Cc3ccccc3)n2)cc1 | 115 to 118 °C
Nc1cc(N2CC(COCc3ccccc3)OC2=O)ccn1 (stereo not given) | 122 to 123 °C
CN1C2CCC1CC(NC(=O)c1cccc3nc(-c4ccccc4)oc13)C2 (stereo not given) | 164 to 166 °C
O=c1oc(OCc2ccccc2)c(Cl)c2ccccc12 | 92 °C
COc1cc2c(cc1O)CCN(C(=O)c1ccc(OC)c(OC)c1)C2 | 132 to 133 °C
CCCCc1c(Cl)nc(O)nc1Cl | 73 to 75 °C
COC(=O)c1ccc(Cl)cn1 | 83 to 86 °C
CCN(CC)C(=O)Nc1cccc(Cl)c1 | 81 to 82 °C
Cc1nc2c(O)c(CC[C@@H](O)c3ccccc3)c(C(=O)N3CCC3)cc2n1C | 265 to 266 °C
CCCCOC(=O)C1C(C(C)=O)C(=O)N1C(Cc1ccc(OC)cc1)Cc1ccc(OC)cc1 (stereo not given) | 92.5 to 94 °C
CC(C)=Nc1c(-c2ccccc2)[nH]c(C)c1C(N)=O | 221 to 223 °C
CCC(C)(CC)c1nnc(NC(=O)c2ccccc2)s1 | 98 to 100 °C
CCOC(=O)C(Cc1ccc(OCCn2c(=O)sc3cc(C(=NO)C4CC4)ccc32)cc1)OCC(F)(F)F (stereo not given) | 105 to 107 °C
CNc1cc(S(=O)(=O)c2cccc(C(F)(F)F)c2)cc(Br)n1 | 115 to 117 °C
O=C1NOCc2ccccc21 | 123 to 125 °C
